# Earlier results as cited in patent US20080226715A1, “THERAPEUTIC COMPOSITIONS AND METHODS” (priority 2007, published 2008).
# Assays:
# [1] = in vivo
# [2] = after oral dosing; normal subjects
bioavailability [1],pharmacokinetics half-life [1],time of peak plasma concentrations [2],Structure (SMILES)
95%,42 to 50 h,–,O=C(O)CCc1nc(-c2ccccc2)c(-c2ccccc2)o1 [Oxaprozin]
–,–,about 1 hour,CC(=O)Nc1ccc(O)cc1 [acetaminophen]
–,–,about 1 hour,CC(=O)Oc1ccccc1C(=O)O [aspirin]
